Laboratory results published in patent US6482804B1, “Compositions and methods for delivery of genetic material” (Wyeth, priority 1997, dated 2002).

Assay: Scanning and transmission electron microscopy (SEM/TEM) of surfactant:DNA complexes
Type: physicochemical
Conditions: aqueous formulations
Method: Scanning electron microscopy (SEM) and transmission electron microscopy (TEM) were employed to visualize the resulting complexes formed by the benzylammonium-containing surfactant and polynucleic acid compositions of this invention.
Each formulation containing 8.71% sucrose w/v and 5 mM phosphate buffer at pH6.7±0.5.
ii. […] However, upon addition of DNA, vesicular complexes are formed, when observed by SEM.
iii. […] Similar particle distribution was found at both concentrations of DNA, but in larger numbers with higher DNA concentrations. Larger particles in higher DNA concentrations appear to have derived from the fusion of several 50 nm particles. Formation of larger particles was dependent on the concentration of DNA in the formulation. These particles were visualized by shadow casting in SEM analysis using carbon, and were visible by short (10 second) exposure to the contrasting agent uranyl acetate in TEM analysis. The TEMs show membranous structures typical of liposomes described in literature.
As controls, SEM of DNA alone and benzalkonium chloride alone in aqueous solutions were performed. Vesicular structures are found only when aqueous solutions of DNA and benzalkonium chloride are mixed. TEMs show structures that are vesicular and some are multilamellar. Membranous structures found in these TEMs are consistent with the formation of lamellar vesicular complexes in liposomes.

benzalkonium chloride
structures seen by SEM/TEM: does not form vesicular complexes
